Experimental data as given in ChEMBL document CHEMBL1201862, “PubChem BioAssay data set” (2004).
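Following 48 hours of exposure in 96-well plates, responses at five concentrations were used to interpolate endpoints linearly. GI50 marks 50% less growth.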 Active and inactive are the calls of the source. No stated cut-off is given here; in the data, active = GI50 up to about 1.1 µM and inactive = higher.

Experiments:
Assay in all cases: NCI tumour cell line growth inhibition, 48 h
786-0 = system: 786-0
A549 = system: A549
ACHN = system: ACHN
BT-549 = system: BT-549
CAKI-1 = system: CAKI-1
CCRF-CEM = system: CCRF-CEM
COLO 205 = system: COLO 205
DU-145 = system: DU-145
EKVX = system: EKVX
HCT-116 = system: HCT-116
HCT-15 = system: HCT-15
HOP-62 = system: HOP-62
HOP-92 = system: HOP-92
HT-29 = system: HT-29
Hs-578T = system: Hs-578T
IGROV-1 = system: IGROV-1
K562 = system: K562
KM12 = system: KM12
LOX IMVI = system: LOX IMVI
M14 = system: M14
MCF7 = system: MCF7
MDA-MB-231 = system: MDA-MB-231
MDA-MB-435 = system: MDA-MB-435
MOLT-4 = system: MOLT-4
Malme-3M = system: Malme-3M
NCI-H226 = system: NCI-H226
NCI-H23 = system: NCI-H23
NCI-H460 = system: NCI-H460
NCI-H522 = system: NCI-H522
NCI/ADR-RES = system: NCI/ADR-RES
OVCAR-4 = system: OVCAR-4
OVCAR-5 = system: OVCAR-5
OVCAR-8 = system: OVCAR-8
PC-3 = system: PC-3
RPMI-8226 = system: RPMI-8226
SF-268 = system: SF-268
SF-295 = system: SF-295
SF-539 = system: SF-539
SK-MEL-28 = system: SK-MEL-28
SK-MEL-2 = system: SK-MEL-2
SK-MEL-5 = system: SK-MEL-5
SK-OV-3 = system: SK-OV-3
SN12C = system: SN12C
SNB-19 = system: SNB-19
SNB-75 = system: SNB-75
SR = system: SR
SW-620 = system: SW-620
T47D = system: T47D
TK-10 = system: TK-10
U-251 = system: U-251
UACC-257 = system: UACC-257
UACC-62 = system: UACC-62
UO-31 = system: UO-31
A498 = system: A498
HCC 2998 = system: HCC 2998
HL-60 = system: HL-60
OVCAR-3 = system: OVCAR-3
RXF 393 = system: RXF 393
MDA-N = system: MDA-N

CCCCCCCCCOC(=O)c1cnc(Cl)cn1
GI50 (786-0): 72.4 µM (inactive)
GI50 (A549): 26.4 µM (inactive)
GI50 (ACHN): 19.4 µM (inactive)
GI50 (BT-549): 26.5 µM (inactive)
GI50 (CAKI-1): 16.9 µM (inactive)
GI50 (CCRF-CEM): 39.9 µM (inactive)
GI50 (COLO 205): 22.2 µM (inactive)
GI50 (DU-145): 19.6 µM (inactive)
GI50 (EKVX): 22.3 µM (inactive)
GI50 (HCT-116): 17.7 µM (inactive)
GI50 (HCT-15): 17.4 µM
GI50 (HOP-62): 24 µM (inactive)
GI50 (HOP-92): 42.4 µM (inactive)
GI50 (HT-29): 29 µM (inactive)
GI50 (Hs-578T): 22.8 µM (inactive)
GI50 (IGROV-1): 20.2 µM (inactive)
GI50 (K562): 36.8 µM (inactive)
GI50 (KM12): 17.5 µM (inactive)
GI50 (LOX IMVI): 19.8 µM (inactive)
GI50 (M14): 18.4 µM (inactive)
GI50 (MCF7): 25 µM (inactive)
GI50 (MDA-MB-231): 18.5 µM (inactive)
GI50 (MDA-MB-435): 19.9 µM (inactive)
GI50 (MOLT-4): 52.7 µM (inactive)
GI50 (Malme-3M): 19.6 µM (inactive)
GI50 (NCI-H226): 18.2 µM (inactive)
GI50 (NCI-H23): 18.2 µM (inactive)
GI50 (NCI-H460): 20.8 µM (inactive)
GI50 (NCI-H522): 19 µM (inactive)
GI50 (NCI/ADR-RES): 22.2 µM (inactive)
GI50 (OVCAR-4): 27.9 µM (inactive)
GI50 (OVCAR-5): 29 µM (inactive)
GI50 (OVCAR-8): 33.4 µM (inactive)
GI50 (PC-3): 6.18 µM (inactive)
GI50 (RPMI-8226): 21.9 µM (inactive)
GI50 (SF-268): 21.2 µM (inactive)
GI50 (SF-295): 17.6 µM (inactive)
GI50 (SF-539): 25.8 µM (inactive)
GI50 (SK-MEL-28): 24 µM (inactive)
GI50 (SK-MEL-2): 22.1 µM (inactive)
GI50 (SK-MEL-5): 17.6 µM (inactive)
GI50 (SK-OV-3): 34.9 µM (inactive)
GI50 (SN12C): 18.3 µM (inactive)
GI50 (SNB-19): 20.9 µM (inactive)
GI50 (SNB-75): 22.3 µM (inactive)
GI50 (SR): 49.1 µM (inactive)
GI50 (SW-620): 17.3 µM (inactive)
GI50 (T47D): 22.1 µM (inactive)
GI50 (TK-10): 20.5 µM (inactive)
GI50 (U-251): 19.7 µM (inactive)
GI50 (UACC-257): 23.6 µM (inactive)
GI50 (UACC-62): 18.1 µM (inactive)
GI50 (UO-31): 18.5 µM (inactive)

COC(=O)n1c(=O)n(-c2ccccc2)c(=O)n1C(=O)Nc1ccccc1
GI50 (786-0): > 100 µM (inactive)
GI50 (A498): > 100 µM (inactive)
GI50 (A549): > 100 µM (inactive)
GI50 (ACHN): > 100 µM (inactive)
GI50 (BT-549): > 100 µM (inactive)
GI50 (CAKI-1): > 100 µM (inactive)
GI50 (CCRF-CEM): 96.2 µM (inactive)
GI50 (COLO 205): > 100 µM (inactive)
GI50 (DU-145): > 100 µM (inactive)
GI50 (EKVX): > 100 µM (inactive)
GI50 (HCC 2998): > 100 µM (inactive)
GI50 (HCT-116): > 100 µM (inactive)
GI50 (HCT-15): > 100 µM
GI50 (HL-60): > 100 µM (inactive)
GI50 (HOP-62): > 100 µM (inactive)
GI50 (HOP-92): > 100 µM (inactive)
GI50 (HT-29): > 100 µM (inactive)
GI50 (Hs-578T): > 100 µM (inactive)
GI50 (IGROV-1): > 100 µM (inactive)
GI50 (K562): 51.3 µM (inactive)
GI50 (KM12): > 100 µM (inactive)
GI50 (LOX IMVI): > 100 µM (inactive)
GI50 (M14): > 100 µM (inactive)
GI50 (MDA-MB-231): > 100 µM (inactive)
GI50 (MDA-MB-435): > 100 µM (inactive)
GI50 (MOLT-4): > 100 µM (inactive)
GI50 (Malme-3M): > 100 µM (inactive)
GI50 (NCI-H226): > 100 µM (inactive)
GI50 (NCI-H23): > 100 µM (inactive)
GI50 (NCI-H460): > 100 µM (inactive)
GI50 (NCI-H522): > 100 µM (inactive)
GI50 (NCI/ADR-RES): > 100 µM (inactive)
GI50 (OVCAR-3): > 100 µM (inactive)
GI50 (OVCAR-4): 3.42 µM (inactive)
GI50 (OVCAR-5): > 100 µM (inactive)
GI50 (OVCAR-8): > 100 µM (inactive)
GI50 (PC-3): > 100 µM (inactive)
GI50 (RPMI-8226): 96.4 µM (inactive)
GI50 (RXF 393): > 100 µM (inactive)
GI50 (SF-268): > 100 µM (inactive)
GI50 (SF-295): > 100 µM (inactive)
GI50 (SK-MEL-28): > 100 µM (inactive)
GI50 (SK-MEL-2): > 100 µM (inactive)
GI50 (SK-MEL-5): > 100 µM (inactive)
GI50 (SK-OV-3): > 100 µM (inactive)
GI50 (SNB-19): > 100 µM (inactive)
GI50 (SNB-75): > 100 µM (inactive)
GI50 (SR): > 100 µM (inactive)
GI50 (SW-620): > 100 µM (inactive)
GI50 (T47D): > 100 µM (inactive)
GI50 (TK-10): > 100 µM (inactive)
GI50 (U-251): > 100 µM (inactive)
GI50 (UACC-257): > 100 µM (inactive)
GI50 (UACC-62): > 100 µM (inactive)
GI50 (UO-31): > 100 µM (inactive)

c1cc2nnc1SCCSCCCSCCS2
GI50 (786-0): 67 µM (inactive)
GI50 (A498): > 100 µM (inactive)
GI50 (A549): > 100 µM (inactive)
GI50 (ACHN): > 100 µM (inactive)
GI50 (CAKI-1): > 100 µM (inactive)
GI50 (CCRF-CEM): > 100 µM (inactive)
GI50 (COLO 205): > 100 µM (inactive)
GI50 (DU-145): 2.86 µM (inactive)
GI50 (EKVX): > 100 µM (inactive)
GI50 (HCC 2998): > 100 µM (inactive)
GI50 (HCT-116): > 100 µM (inactive)
GI50 (HCT-15): > 100 µM
GI50 (HL-60): > 100 µM (inactive)
GI50 (HOP-62): 35.2 µM (inactive)
GI50 (HOP-92): 46.5 µM (inactive)
GI50 (HT-29): > 100 µM (inactive)
GI50 (Hs-578T): > 100 µM (inactive)
GI50 (IGROV-1): > 100 µM (inactive)
GI50 (K562): > 100 µM (inactive)
GI50 (KM12): > 100 µM (inactive)
GI50 (LOX IMVI): > 100 µM (inactive)
GI50 (M14): > 100 µM (inactive)
GI50 (MCF7): > 100 µM (inactive)
GI50 (MDA-MB-231): 29.6 µM (inactive)
GI50 (MDA-MB-435): > 100 µM (inactive)
GI50 (MDA-N): > 100 µM (inactive)
GI50 (MOLT-4): > 100 µM (inactive)
GI50 (Malme-3M): > 100 µM (inactive)
GI50 (NCI-H226): > 100 µM (inactive)
GI50 (NCI-H23): > 100 µM (inactive)
GI50 (NCI-H460): > 100 µM (inactive)
GI50 (NCI-H522): > 100 µM (inactive)
GI50 (NCI/ADR-RES): > 100 µM (inactive)
GI50 (OVCAR-3): > 100 µM (inactive)
GI50 (OVCAR-4): 34.6 µM (inactive)
GI50 (OVCAR-5): > 100 µM (inactive)
GI50 (OVCAR-8): > 100 µM (inactive)
GI50 (PC-3): > 100 µM (inactive)
GI50 (RPMI-8226): > 100 µM (inactive)
GI50 (RXF 393): > 100 µM (inactive)
GI50 (SF-268): 2.88 µM (inactive)
GI50 (SF-295): > 100 µM (inactive)
GI50 (SF-539): 20 µM (inactive)
GI50 (SK-MEL-28): 29.2 µM (inactive)
GI50 (SK-MEL-2): > 100 µM (inactive)
GI50 (SK-MEL-5): > 100 µM (inactive)
GI50 (SK-OV-3): > 100 µM (inactive)
GI50 (SN12C): > 100 µM (inactive)
GI50 (SNB-19): 56.8 µM (inactive)
GI50 (SNB-75): 5.83 µM (inactive)
GI50 (SR): > 100 µM (inactive)
GI50 (SW-620): > 100 µM (inactive)
GI50 (T47D): > 100 µM (inactive)
GI50 (TK-10): > 100 µM (inactive)
GI50 (U-251): > 100 µM (inactive)
GI50 (UACC-257): > 100 µM (inactive)
GI50 (UACC-62): > 100 µM (inactive)
GI50 (UO-31): > 100 µM (inactive)
